The conditions of series [1]: cited from earlier work.
Series [2] in a line: Solubility determination, modified Direct UV method (Sol-PAMPA solubility portion). The following applies: for solubility at 90 min / solubility kinetic at 90 min: kinetic from dmso stock. On the procedure: The aqueous and aqueous/methanol solutions were shaken for 90 minutes at room temperature. Using a 96-tip Biomek FX liquid handling system (Beckman Coulter, Fullterton, Calif.), the solutions were transferred to a MultiScreen-Solubility 96-well filterplate (MSSLBPC10, Millipore, Mass.), vacuum filtered, and collected into a clean 96-deepwell plate. […] The sample wells were diluted in the UV/Vis plate with pre-dispensed methanol (20% v/v) for spectroscopic consistency. The remaining portion of the filtrate was sealed and kept in a cool, dark place to be used within 2 hours in the permeability assay. […] The absorption spectra were then corrected for variance in path length by the PathCheck™ algorithm in the SoftMaxPro® software. Next, the optical density (OD) at an appropriate wavelength (λ) was determined for each compound by the analysis algorithm as follows: the UV-Visible spectra were analyzed with a program written in HPBASIC for Windows (TransEra Corporation, Orem, Utah). Briefly, from the spectrum of each well a heuristically matched, scaled and appropriately shifted baseline was subtracted. The locations (λ) and the values of all the peaks [OD(λ)] were then determined. […] In addition, built in user interface tools offered a convenient way to review and manually reassign the λ values to address special cases. When no peaks were found in the spectra, the OD values at 265 nm were used.
For the solubility calculation, a consensus λ was determined for the sample and reference spectra and the corresponding OD values were used in equation (1). The concentrations of the compounds in solution were determined by the following formula: [formula] where OD(λ)sample and OD(λ)Reference are the optical densities at a given wavelength for each compound and [Reference] is the same compound at a known reference concentration.
(The PAMPA barrier holds no transporters, so it reflects passive diffusion.)

Series [3] in a line: BBB-PAMPA effective permeability (Sol-PAMPA). To be noted: for Papp at 16 h: PAMPA; for AGY Ranking (CNS+/CNS−): ranking from BBB-Sol-PAMPA Pe; for Pe × 10^−6 (effective BBB permeability): BBB-PAMPA, pH 7.4 to 7.4, input at solubility limit, 16 hours, n=7.
The conditions of series [4]: rat model, literature (Kelder et al. 1999); cited from earlier work.
The conditions of series [5]: cited from earlier work. The source holds these as a separate data set.
For series [6] the following is noted: PAMPA.
A short description of series [7]: in vitro. The following applies: PAMPA, pH 7.4.

The text below walks through data of US20050106745A1, “Combination of solubility and membrane permeability measurement methods for profiling of chemical compounds” (AGY Therapeutics, Inc., priority 2003, published 2005).

Converted amounts (≈) assume the structure as drawn. Counter-ions that a name gives are not always drawn. Like-named read-outs stand apart in the source and are kept apart here.

The term solubility denotes the concentration that dissolves in the medium under given conditions. High values mean much dissolved substance, low ones little dissolved substance. As for `CC(C)NCC(O)COc1cccc2ccccc12` (centres unmarked) [Propranolol, s-propranolol], the “Literature (solubility)” value in series [1] (pH 7.4) was 240 µM. Further, the solubility at 90 min in series [2] (pH 3, aqueous buffer) was above 350 µM; in series [2] (pH 5, aqueous buffer), above 350 µM; in series [2] (pH 7.4, aqueous buffer), above 350 µM; in series [2] (pH 9, aqueous buffer) it was above 350 µM.
Broadly, the Papp is the rate of passage across a membrane or cell layer, normalised by area and donor concentration. Low readings indicate slow passage, high ones fast passage. A word on the solubility (kinetic): it is the concentration staying in solution when a stock, usually in DMSO, is diluted into the medium. In series [3] (pH 7.4), `NC(=O)N1c2ccccc2C=Cc2ccccc21` [Carbamazepine, carbamazepine] gave a Papp at 16 h of 129 nm/s. The “AGY Ranking (CNS+/CNS−)” value in series [3] was “+ (CNS+ compounds have a Pe>2.0×10^−6 cm/sec)”. For the same molecule, in series [4], the “[Brain]/[Blood]” value was 1.00. For the same molecule, the kinetic solubility at 90 min in series [2] (pH 7.4, aqueous buffer) stood at 253 µM (≈ 59.8 µg/mL).
The molecule `CNC(=C[N+](=O)[O-])NCCSCc1ccc(CN(C)C)o1` [Ranitidine HCl, ranitidine] registered a Papp at 16 h in series [3] (pH 7.4) of 0.2 nm/s. Besides, in series [3], the “AGY Ranking (CNS+/CNS−)” value was “− (CNS- compounds have a Pe<2.0×10^−6 cm/sec)”. Besides, in series [4], the “[Brain]/[Blood]” value is 0.06. Besides, the kinetic solubility at 90 min in series [2] (pH 7.4, aqueous buffer) stood at 174 µM.
Consider `Cl.NC1CCN(c2cccc(Cl)n2)CC1` [SR-57227A], for which, in series [3], the “Pe × 10^−6 (effective BBB permeability)” value is recorded as 6.12 ×10^−6 cm/sec and the “AGY Ranking (CNS+/CNS−)” value is reported as “+ (CNS+ compounds have a Pe>2.0×10^−6 cm/sec)”. In addition, the “pH 7.4 Solubility” value in series [2] (pH 7.4, Table 2 test set, n=7) amounted to 294 μM.
With `CN1CC[C@@]23CCCC[C@@H]2[C@@H]1Cc1ccc(O)cc13` [Dextrophan, dextrophan], the “pH 7.4 Solubility” value in series [2] (pH 7.4, Table 2 test set, n=7) amounted to 300 μM. Moreover, the “In Vivo CNS +/−” value in series [5] is “+”. In addition, in series [6], the “AGY Ranking (CNS+/CNS−)” value is given as “+ (key: CNS+ compounds have a Pe>2.0×10^−6 cm/sec; CNS- compounds have a Pe<2.0×10^−6 cm/sec)”. The “Pe × 10^−6 (effective BBB permeability)” value in series [6] (pH 7.4) is listed as 3.14 ×10^−6 cm/sec.
Take `CN1C(C(=O)Nc2ccccn2)=C(O)c2ccccc2S1(=O)=O` [Piroxicam, piroxicam]: the “Literature (solubility)” value in series [1] (pH 3) is 32 µM; in series [1] (pH 5) it was 32 µM; in series [1] (pH 7.4), 300 µM; in series [1] (pH 9) it was above 350 µM. For the same molecule, the solubility at 90 min in series [2] (pH 3, aqueous buffer) was determined as 55 µM (≈ 18.2 µg/mL); in series [2] (pH 5, aqueous buffer) it was 66 µM (≈ 21.9 µg/mL); in series [2] (pH 7.4, aqueous buffer), 257 µM (≈ 85.2 µg/mL); in series [2] (pH 9, aqueous buffer) it was 336 µM (≈ 111 µg/mL).
For `CN(C)CCC=C1c2ccccc2CCc2ccccc21` [Amitriptyline HCl, amitriptyline], in series [3] (pH 7.4), the Papp at 16 h was found to be 128 nm/s. The “AGY Ranking (CNS+/CNS−)” value in series [3] is “+ (CNS+ compounds have a Pe>2.0×10^−6 cm/sec)”. Further, the “[Brain]/[Blood]” value in series [4] was 9.55. In series [2] (pH 7.4, aqueous buffer), this molecule came in with a kinetic solubility at 90 min of 163 µM.
With `O=C(O)Cc1ccccc1Nc1c(Cl)cccc1Cl` [Diclofenac, diclofenac], the results for the “Literature (solubility)” value in series [1] (pH 5), in series [1] (pH 7.4) and in series [1] (pH 9) were 30 µM, above 350 µM and above 350 µM, respectively. Moreover, the Papp at 16 h in series [3] was around 100 nm/s. For the same molecule, the solubility at 90 min was 9 µM (≈ 2.67 µg/mL) in series [2] (pH 3, aqueous buffer); 18 µM (≈ 5.33 µg/mL) in series [2] (pH 5, aqueous buffer); 274 µM (≈ 81.1 µg/mL) in series [2] (pH 7.4, aqueous buffer); 324 µM (≈ 96 µg/mL) in series [2] (pH 9, aqueous buffer).
`Clc1cccc(Cl)c1N=C1NCCN1` [Clonidine, clonidine]: the Papp at 16 h in series [3] (pH 7.4) amounted to 20.1 nm/s. For the same molecule, the “AGY Ranking (CNS+/CNS−)” value in series [3] is recorded as “+ (CNS+ compounds have a Pe>2.0×10^−6 cm/sec)”. In series [4], the “[Brain]/[Blood]” value is listed as 1.29. The kinetic solubility at 90 min in series [2] (pH 7.4, aqueous buffer) is 248 µM (≈ 57.1 µg/mL).
`CN(C)C(=O)C(CCN1CCC(O)(c2ccc(Cl)cc2)CC1)(c1ccccc1)c1ccccc1` [Loperamide] came in with a Papp in series [7] of 10.7 nm/s. Moreover, the “AGY Ranking (CNS+/CNS−)” value in series [3] is “− (CNS- compounds have a Pe<2.0×10^−6 cm/sec)”. In series [2] (pH 7.4, aqueous buffer), this molecule yielded a kinetic solubility at 90 min of 165 µM (≈ 78.7 µg/mL).
For `Cc1cc(NC(=O)C2=C(O)c3ccccc3S(=O)(=O)N2C)no1` [Isoxicam, isoxicam], in series [3] (pH 7.4), the Papp at 16 h is 7.1 nm/s. The “AGY Ranking (CNS+/CNS−)” value in series [3] is listed as “− (CNS- compounds have a Pe<2.0×10^−6 cm/sec)”. For the same molecule, the solubility (kinetic) at 90 min in series [2] (pH 7.4, aqueous buffer) was 322 µM (≈ 108 µg/mL).
In series [2] (pH 7.4, aqueous buffer), `C[C@]12N[C@H](Cc3ccccc31)c1ccccc12` [MK-801, dizocilpine] displayed a solubility (kinetic) at 90 min of 212 µM (≈ 46.9 µg/mL).
For `Nc1ccc(/N=N/c2ccccc2)c(N)n1` [Phenazopyridine, phenazopyridine], the “Literature (solubility)” value in series [1] (pH 3) is above 350 µM; in series [1] (pH 5), 150 µM; in series [1] (pH 7.4), 58 µM; in series [1] (pH 9), 49 µM. The solubility at 90 min in series [2] (pH 3, aqueous buffer) was determined as 332 µM (≈ 70.8 µg/mL); in series [2] (pH 5, aqueous buffer), 89 µM (≈ 19 µg/mL); in series [2] (pH 7.4, aqueous buffer) it was 86 µM (≈ 18.3 µg/mL); in series [2] (pH 9, aqueous buffer), 71 µM (≈ 15.1 µg/mL).
For `CC(C)(C)[N+]([O-])=Cc1ccccc1` [N-tert-Butyl-a-phenylnitrone, N-tert-Butyl-alpha-phenylnitrone], the “AGY Ranking (CNS+/CNS−)” value in series [3] was “+ (CNS+ compounds have a Pe>2.0×10^−6 cm/sec)”.
Consider `c1cc(CN2CCCCC2)cc(OCCCNc2nc3ccccc3s2)c1` [Zolantidine], for which, in series [3] (pH 7.4), the Papp at 16 h is 125 nm/s. Moreover, the “AGY Ranking (CNS+/CNS−)” value in series [3] was “+ (CNS+ compounds have a Pe>2.0×10^−6 cm/sec)”. In series [4], the “[Brain]/[Blood]” value is listed as 1.38. In series [2] (pH 7.4, aqueous buffer), this molecule displayed a solubility (kinetic) at 90 min of 108 µM (≈ 41.2 µg/mL).
In the case of `Cn1c(=O)c2c(ncn2C)n(C)c1=O` [Caffeine, caffeine], the “AGY Ranking (CNS+/CNS−)” value in series [3] is given as “− (CNS- compounds have a Pe<2.0×10^−6 cm/sec)”.
In series [3] (pH 7.4), `c1ccc2nc(N3CCNCC3)ccc2c1` [Quipazine] gave a Papp at 16 h of 149 nm/s. Also, the “AGY Ranking (CNS+/CNS−)” value in series [3] is given as “+ (CNS+ compounds have a Pe>2.0×10^−6 cm/sec)”. Also, in series [2] (pH 7.4, aqueous buffer), the solubility (kinetic) at 90 min was found to be 239 µM (≈ 51 µg/mL).
For the molecule `COCCCC/C(=N\OCCN)c1ccc(C(F)(F)F)cc1` [Fluvoxamine, fluvoxamine], in series [2] (pH 7.4, aqueous buffer), the solubility (kinetic) at 90 min is 207 µM (≈ 65.9 µg/mL).
Turning to `Cn1c(=O)c2[nH]cnc2n(C)c1=O` [Theophylline, theophylline], in series [1] (pH 7.4), the “Literature (solubility)” value was above 350 µM. Further, the solubility at 90 min in series [2] (pH 3, aqueous buffer) was 330 µM (≈ 59.5 µg/mL); in series [2] (pH 5, aqueous buffer) it was 337 µM (≈ 60.7 µg/mL); in series [2] (pH 7.4, aqueous buffer), 290 µM (≈ 52.2 µg/mL); in series [2] (pH 9, aqueous buffer), above 350 µM.
Consider `CNCCCN1c2ccccc2CCc2ccccc21` [Desipramine, desipramine], for which, in series [1] (pH 7.4), the “Literature (solubility)” value is 155 µM. The Papp at 16 h in series [3] (pH 7.4) worked out at 179 nm/s. The “AGY Ranking (CNS+/CNS−)” value in series [3] is recorded as “+ (CNS+ compounds have a Pe>2.0×10^−6 cm/sec)”. The “[Brain]/[Blood]” value in series [4] is 10.00. The solubility at 90 min in series [2] (pH 3, aqueous buffer) is above 350 µM; in series [2] (pH 5, aqueous buffer), above 350 µM; in series [2] (pH 7.4, aqueous buffer), above 350 µM; in series [2] (pH 9, aqueous buffer) it was above 350 µM. This molecule also yielded a kinetic solubility at 90 min in series [2] (pH 7.4, aqueous buffer) of 274 µM (≈ 73 µg/mL).
As to `CCn1cc(C(=O)O)c(=O)c2cc(F)c(N3CCNC(C)C3)c(F)c21` (centres unmarked) [Lomafloxacin, lomafloxacin], in series [3], the “Pe × 10^−6 (effective BBB permeability)” value is 0.17 ×10^−6 cm/sec and the “AGY Ranking (CNS+/CNS−)” value is “− (CNS- compounds have a Pe<2.0×10^−6 cm/sec)”. Besides, the “pH 7.4 Solubility” value in series [2] (90 min, pH 7.4) was determined as 288 μM.
